Starred links: 1 amine or outer side, 2 acyl side, 3 side chain; linkers in the order of their positions; H or OH if unused. Positions of bridges follow the written chain, without caps; N, C: chain ends. Non-standard residues stand in square brackets, D forms with d. Residues, ends and D or L forms follow the SMILES beside them. Chains are numbered I, II in the order given. Actinocin(9to1) = Cc1c2oc3c(C)ccc(C(=O)[*:1])c3nc-2c(C(=O)[*:2])c(N)c1=O; NMeV = CN[C@H](C(=O)O)C(C)C; Sar = CNCC(=O)O
Tests used:
[1] = molecular target: T1, MBNL-CUG RNA complex (Homo sapiens, UniProt Q9NR56); assay: Gel shift assay, disruption of MBNL binding to short CUG repeat RNA; details: for Disruption of the MBNL-CUG interaction: gel shift screen, increasing amounts of small molecule
T1 construct: Both the full length MBNL and MBNL (1-260) constructs were cloned using BamHI and NotI restriction sites; GST (N, cleaved yes); made in house; host or cells: E. coli BL21-Star
T1 sequence (Q9NR56 1-382 isoform Q9NR56-5): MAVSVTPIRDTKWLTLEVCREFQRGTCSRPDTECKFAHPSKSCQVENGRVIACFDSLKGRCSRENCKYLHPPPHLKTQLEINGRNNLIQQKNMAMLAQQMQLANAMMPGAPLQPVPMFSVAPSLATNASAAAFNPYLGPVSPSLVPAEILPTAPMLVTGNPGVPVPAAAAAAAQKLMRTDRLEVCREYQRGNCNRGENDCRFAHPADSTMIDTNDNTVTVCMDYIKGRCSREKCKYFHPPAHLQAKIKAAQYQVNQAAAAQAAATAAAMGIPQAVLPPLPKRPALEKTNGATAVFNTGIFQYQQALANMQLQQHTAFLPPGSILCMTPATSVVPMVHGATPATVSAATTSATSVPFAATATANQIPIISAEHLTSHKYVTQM
Description: MBNL1 (MBNL) was PCR amplified and was cloned into GST fusion vector pGEX-6P-1 (GE Healthcare, Piscataway, N.J.), using DNA encoding a MBNL isoform with amino acids 1-382). Both the full length MBNL and MBNL (1-260) constructs were cloned using BamHI and NotI restriction sites. Using BL21-Star expression cells (Invitrogen, Carlsbad, Calif.), protein expression was induced with 0.25 mM IPTG at an OD600 of about 0.5-1, for 3-4 hours at 37° C. Cells were lysed in 30 ml of buffer (500 mM NaCl, 25 mM Tris pH 7.5, 10 mM β-mercaptoethanol (BME) and 5% glycerol) using 1 mg/ml of lysozyme, followed by sonication (3×30 seconds). Cell extract was centrifuged for 15 minutes at 17,000 rpm, and lysate which contained GST-MBNL was collected. GST-MBNL was bound to GST affinity beads for 30 minutes at 4° C. […] The protein was then run over an anion exchange (Q) column. […] MBNL was collected in the column flow through, concentrated and dialyzed into storage buffer (30% glycerol, 300 mM NaCl, 20 mM Tris pH 7.5, 5 mM BME) and stored at −80° C. Aliquots were removed from −80° C. and temporarily placed at −20° C. until used for an experiment.
All RNA substrates that were radiolabeled were ordered from IDT DNA (Coralville, Iowa), and 5′ end-labeled using [γ-^32P]ATP. All radiolabeled RNAs were purified on 8% polyacrylamide denaturing gels.
Solutions for the protein-RNA binding experiments contained 125 mM NaCl, 5 mM MgCl2, 20 mM Tris (pH 7.5), 7.5% glycerol, 2 mg/ml bovine serum albumin, and 0.1 mg/ml heparin. Prior to incubation, RNA substrates were annealed by incubation at 95° C. for 2 minutes and then placed directly on ice for 20 minutes in 66 mM NaCl, 6.7 mM MgCl2, and 27 mM Tris (pH 7.5). Protein was then added to the RNA in the presence or absence of the small molecule. The binding reaction was carried out in a 10 μL volume and was incubated for 10 minutes at room temperature before 2-4 μL were loaded on a pre-chilled 4° C. gel. RNA and RNA-protein complexes were separated on 3% acrylamide (37.5:1), 0.3% agarose (low melting point), 0.5× Tris-Borate (TB) gels, run for approximately 2-3 hours at 4° C. at 25-50 volts. Gels were dried and autoradiographed. For the neomycin B and CUG8 gel shift, an 8% acrylamide (29:1), 0.5×TB gel was used and run for 3 hours at 4° C. at 175 volts. All small molecules were dissolved in either water or ethanol, according to the manufacturer's guidance for solubility.
(§1) For binding curves, gels were quantified using ImageQuant® software (Molecular Dynamics, Piscataway, N.J.). The percent RNA bound was determined by taking the ratio of RNA-protein complex to total RNA, per lane. Any counts in the well were discarded as it was unapparent if the RNA was bound by protein, small molecule or was in an aggregate. Binding curves were graphed using KaleidaGraph software (Synergy Software, Reading, Pa.). For the neomycin B and CUG8 gel shift, the apparent Kd was determined using Equation 1, where Y=fraction bound, m0=small molecule concentration, m1=total RNA concentration, and m2=Kd.
For determining the EC50, Equation 3 was used, where m0=small molecule concentration, m1=EC50, m2=Hill coefficient, and m3=fraction MBNL bound without small molecule present. Y=m3/[1+(m0/m1)^m2] Equation 3 Results

[2] = molecular target: T2, MBNL-cTNT interaction (Homo sapiens, UniProt Q9NR56); assay: Gel shift assay, disruption of MBNL binding to cTNT pre-mRNA site; details: read-out: EC50 for disruption of MBNL binding to cTNT target construct
T2 construct: Both the full length MBNL and MBNL (1-260) constructs were cloned using BamHI and NotI restriction sites; GST (N, cleaved yes); made in house; host or cells: E. coli BL21-Star
T2 sequence (Q9NR56 1-382 isoform Q9NR56-5): T1 sequence (Q9NR56 1-382 isoform Q9NR56-5)
Description: Solutions for the protein-RNA binding experiments contained 125 mM NaCl, 5 mM MgCl2, 20 mM Tris (pH 7.5), 7.5% glycerol, 2 mg/ml bovine serum albumin, and 0.1 mg/ml heparin. Prior to incubation, RNA substrates were annealed by incubation at 95° C. for 2 minutes and then placed directly on ice for 20 minutes in 66 mM NaCl, 6.7 mM MgCl2, and 27 mM Tris (pH 7.5). Protein was then added to the RNA in the presence or absence of the small molecule. The binding reaction was carried out in a 10 μL volume and was incubated for 10 minutes at room temperature before 2-4 μL were loaded on a pre-chilled 4° C. gel. […]
as §1, with “Any counts in the well were discarded as it was unapparent if the RNA was bound by protein, small molecule or was in an aggregate.” left out, “m2=Kd. […]” for “m2=Kd.”
Pentamidine has been shown previously to bind to other RNAs and DNAs (Zhang et al., RNA 6:937-951, 2000); therefore, we determined pentamidine binding to an endogenous target of MBNL. […]

[3] = tested on: cTNT splicing reporter in HeLa cells; assay: cTNT splicing reporter (exon 5 inclusion) in HeLa cells with or without CUG960 plasmid; format: cell-based; details: presence of the CUG960 construct
Description: HeLa cells were grown in monolayers in DMEM with GlutaMAX™ (Gibco, Carlsbad, Calif.) and supplemented with 10% fetal bovine serum. Approximately 2.0 (±0.2)×10^5 cells were plated in 6 well plates and transfected 18-20 hours later at 70-90% confluency. 1 μg of plasmid was transfected into each well of cells, using 5 μL of […] (Invitrogen) according to the manufacturer's protocols. For co-transfection, 1 μg of total plasmid was transfected, at 500 ng of each construct. Test compounds were added 4 hours after transfection, when the media was changed. Cells were harvested 18-22 hours after transfection using TrypLE™ reagent (Gibco).
Immediately following harvesting, RNA was isolated from the cell pellets using an RNeasy® kit (Qiagen, Valencia, Calif.). 500 ng of isolated RNA was DNased with RQI DNase (Promega, Madison, Wis.) according to manufacture's protocol. 100 ng of DNAsed RNA was reverse transcribed with Superscript® II (Invitrogen, Carlsbad, Calif.) and a cTNT-specific reverse primer according to manufacturer's protocols. 30 ng of the reverse transcription reaction was subjected to 22-25 rounds of PCR amplification using cTNT specific primers spiked with a forward primer 5′ end-labeled with [γ-^32P]ATP. Similar methods were used to reverse transcribe and amplify IR and PLEKHH2. […] The resulting PCR products were run on a 6% (19:1) polyacrylamide denaturing gel. The gel was subsequently autoradiographed and quantitation of the radioactive bands was performed using ImageQuant® software.
The following primer pairs were used. For the cTNT minigene, the forward primer was […] (SEQ ID NO: 1), and the reverse primer was […] (SEQ ID NO: 2). For the IR minigene, the forward primer was […] (SEQ ID NO: 3), and the reverse primer was […] (SEQ ID NO: 4). The underlined sections are for cloning purposes. For the PLEKHH2 minigene, the forward primer was […] (SEQ ID NO: 5), and the reverse primer was […] (SEQ ID NO: 6).
The ability of pentamidine to alter the splicing defects observed in a cell-based model for DM was tested. This was accomplished in a system using cells transformed with a plasmid expressing 960 CUG repeats where the expression of these CUG repeats causes splicing defects similar to those observed in DM cells and DM subjects (Savkur et al., Nature Genet. 29:40-47, 2001).

SMILES	Disruption of the MBNL-CUG interaction [1]	EC50 ([1]; gel shift, short CUG repeat RNA (CUG4), read-out: EC50 for disruption of MBNL binding to CUG repeat construct) [µM]	EC50 [2] [µM]	Concentration giving complete rescue of cTNT missplicing [3] [µM]
NC[C@@H]1O[C@H](O[C@H]2[C@@H](O)[C@H](O[C@@H]3[C@@H](O)[C@H](N)C[C@H](N)[C@H]3O[C@H]3O[C@H](CN)[C@@H](O)[C@H](O)[C@H]3N)O[C@@H]2CO)[C@H](N)[C@@H](O)[C@@H]1O [neomycin B]	disrupt the MBNL-CUG interaction at micromolar concentrations	110	50	
N=C(N)c1ccc(OCCCCCCCOc2ccc(C(=N)N)cc2)cc1 [heptamidine]				25
Cc1c2oc3c(C)ccc(C(=O)N[C@@H]4C(=O)N[C@H](C(C)C)C(=O)N5CCC[C@H]5C(=O)N(C)CC(=O)N(C)[C@@H](C(C)C)C(=O)O[C@@H]4C)c3nc-2c(C(=O)N[C@@H]2C(=O)N[C@H](C(C)C)C(=O)N3CCC[C@H]3C(=O)N(C)CC(=O)N(C)[C@@H](C(C)C)C(=O)O[C@@H]2C)c(N)c1=O [actinomycin D] (I: T[dV]P[Sar][NMeV] / II: T[dV]P[Sar][NMeV]; ester I:1-I:C, II:1-II:C; linker I:N-II:N via Actinocin(9to1))	did not disrupt the MBNL-CUG interaction at any concentration			
NC[C@@H]1O[C@H](O[C@H]2[C@@H](O)[C@H](O[C@@H]3[C@@H](O)[C@H](N)C[C@H](N)[C@H]3O[C@H]3O[C@H](CO)[C@@H](O)[C@H](O)[C@H]3N)O[C@@H]2CO)[C@H](N)[C@@H](O)[C@@H]1O [paromomycin]	did not disrupt the MBNL-CUG interaction at any concentration			
CN1C(=Cc2cc[n+](C)c3ccccc23)Sc2ccccc21 [thiazole orange]	disrupt the MBNL-CUG interaction at micromolar concentrations			

Reference: patent US8436049B2, “Uses of pentamidine and related compounds” (State of Oregon Acting By and Through the State Board of …, priority 2008, dated 2013)
